Molecular target: T1, PD-1/PD-L1 (Homo sapiens, UniProt Q9NZQ7)
T1 construct: Recombinant human PD-L1 protein (19-238) with a His-tagged at the C-terminus; purchased AcroBiosystems PD1-H5229 (PD-L1); PD1-H5257 (PD-1)
Experiment: PD-1/PD-L1 Homogeneous Time-Resolved Fluorescence (HTRF) Binding Assay
Settings: 25° C., PBS pH 7.4, ~3 nM PD1, 10 nM PD-L1
Method: Example A: PD-1/PD-L1 Homogeneous Time-Resolved Fluorescence (HTRF) Binding Assay
Assays were performed in standard black 384-well polystyrene plates and a final volume was 20 μL. The inhibitor was first serially diluted with DMSO and added to the wells of the plate, followed by the addition of other reaction components. The final concentration of DMSO in the assay was 1%. Assays were performed at 25° C. in PBS buffer (pH 7.4) containing 0.05% Tween-20 and 0.1% BSA. Recombinant human PD-L1 protein (19-238) with a His-tagged at the C-terminus was purchased from AcroBiosystems (PD1-H5229). Recombinant human PD-1 protein (25-167) with an Fc tag at the C-terminus was also purchased from AcroBiosystems (PD1-H5257). The PD-L1 and PD-1 proteins were diluted in assay buffer and then […] of the solution was extracted and added to the wells of the plate. Plates were centrifuged and proteins and inhibitors were preincubated for 40 minutes. After incubation, 0.1 μl of HTRF detection buffer containing europium […] labeled anti-human IgG (PerkinElmer-AD0212), Fc-specific and anti-His SureLight®-Allophycocyanin (APC, PerkinElmer-AD0059H) conjugated antibodies was added. After centrifugation, the plates were incubated at 25° C. for 60 minutes. Data was read in a PHERAstar FS plate reader (665 nm/620 nm ratio). Final concentrations in the assay were ˜3 nM PD1, 10 nM PD-L1, 1 nM europium anti-human IgG, and 20 nM anti-His-allophycocyanin. Activity data were fitted using GraphPad Prism 5_0 software to derive IC50 values for inhibitors.

T1 sequence (Q9NZQ7 19-238): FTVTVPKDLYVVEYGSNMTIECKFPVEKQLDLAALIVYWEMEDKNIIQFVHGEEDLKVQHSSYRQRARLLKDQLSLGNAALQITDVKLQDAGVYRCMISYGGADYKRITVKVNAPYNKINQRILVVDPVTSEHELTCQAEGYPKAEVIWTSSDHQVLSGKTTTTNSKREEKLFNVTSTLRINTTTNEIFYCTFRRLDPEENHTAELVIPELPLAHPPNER

Row | IC50 [nM] | Compound
1 | ≤ 10 | COc1nc(O[C@H]2CCc3c(-c4cccc(-c5nc6cc7c(c(C#N)c6o5)CC[C@H]7N5CC[C@@H](C(=O)NS(=O)(=O)C6CC6)C5)c4C)cccc32)c(Cl)cc1CN1CC[C@@H](O)C1 [Compound 079]
2 | ≤ 10 | COc1nc(O[C@H]2CCc3c(-c4cccc(-c5nc6cc7c(c(C#N)c6o5)CC[C@H]7N5CC[C@@H](C(=O)NS(=O)(=O)C6CC6)C5)c4C)cccc32)c(C(F)F)cc1CN1CC[C@@H](O)C1 [Compound 087]
3 | ≤ 10 | COc1nc(O[C@H]2CCc3c(-c4cccc(-c5nc6cc7c(c(C#N)c6o5)CC[C@H]7N5CC[C@@H](C(=O)NS(=O)(=O)C6CC6)C5)c4Cl)cccc32)ccc1CN1CC[C@@H](O)C1 [Compound 093]
4 | ≤ 10 | COc1nc(O[C@H]2CCc3c(-c4cccc(-c5nc6cc7c(c(C#N)c6o5)CC[C@H]7N5CC[C@@H](C(=O)O)C5)c4Cl)cccc32)c(C(F)F)cc1CN1CC[C@@H](O)C1 [Compound 086]
5 | ≤ 10 | COc1nc(O[C@H]2CCc3c(-c4cccc(-c5nc6cc7c(c(C#N)c6o5)CC[C@H]7N5CC[C@@H](C(=O)O)C5)c4Cl)cccc32)c(Cl)cc1CN1CC[C@@H](O)C1 [Compound 006]
6 | ≤ 10 | COc1nc(O[C@H]2CCc3c(-c4cccc(-c5nc6cc7c(c(C#N)c6o5)CC[C@H]7N5CC[C@@H](C(=O)NS(=O)(=O)C6(C)CC6)C5)c4Cl)cccc32)ccc1CN1CC[C@@H](O)C1 [Compound 097]
7 | ≤ 10 | COc1nc(O[C@H]2CCc3c(-c4cccc(-c5nc6cc7c(c(C#N)c6o5)CCC7N5CC[C@@H](C(=O)O)C5)c4Cl)cccc32)ccc1CN1CC[C@@H](O)C1 (stereo partly drawn) [Compound 004]
8 | ≤ 10 | COc1nc(O[C@H]2CCc3c(-c4cccc(-c5nc6cc7c(c(C#N)c6o5)CC[C@H]7N5CC[C@@H](C(=O)NS(=O)(=O)C6CC6)C5)c4Cl)cccc32)c(Cl)cc1CN1CC2(CCC(=O)N2)C1 [Compound 083]
9 | ≤ 10 | COc1nc(O[C@H]2CCc3c(-c4cccc(-c5nc6cc7c(c(C#N)c6o5)CC[C@H]7N5CC[C@@H](C(=O)NS(=O)(=O)C6(C)CC6)C5)c4C)cccc32)ccc1CN1CC[C@@H](O)C1 [Compound 095]
10 | ≤ 10 | COc1nc(O[C@H]2CCc3c(-c4cccc(-c5nc6cc7c(c(C#N)c6o5)CC[C@H]7N5CC[C@@H](C(=O)NS(=O)(=O)C6(C)CC6)C5)c4C)cccc32)c(Cl)cc1CN1CC2(CCC(=O)N2)C1 [Compound 090]
11 | ≤ 10 | COc1nc(O[C@H]2CCc3c(-c4cccc(-c5nc6cc7c(c(C#N)c6o5)CC[C@H]7N5CC[C@@H](C(=O)O)C5)c4Cl)cccc32)ccc1CN1CC[C@@H](O)C1 [Compound 092]
12 | ≤ 10 | COc1nc(O[C@H]2CCc3c(-c4cccc(-c5nc6cc7c(c(C#N)c6o5)CC[C@H]7N5CC[C@@H](C(=O)NS(=O)(=O)C6CC6)C5)c4Cl)cccc32)c(Cl)cc1CNC[C@H]1CCC(=O)N1 [Compound 081]
13 | ≤ 10 | COc1nc(O[C@H]2CCc3c(-c4cccc(-c5nc6cc7c(c(C#N)c6o5)CC[C@H]7N5CC[C@@H](C(=O)NS(=O)(=O)C6CC6)C5)c4Cl)cccc32)c(C(F)F)cc1CN1CC[C@@H](O)C1 [Compound 088]
14 | ≤ 10 | COc1nc(O[C@H]2CCc3c(-c4cccc(-c5nc6cc7c(c(C#N)c6o5)CCC7N5CC[C@@H](C(=O)O)C5)c4Cl)cccc32)c(Cl)cc1CN1CC[C@@H](O)C1 (stereo partly drawn) [Compound 005]
15 | ≤ 10 | COc1nc(O[C@H]2CCc3c(-c4cccc(-c5nc6cc7c(c(C#N)c6o5)CC[C@H]7N5CC[C@@H](C(=O)NS(=O)(=O)C6CC6)C5)c4C)cccc32)ccc1CN1CC[C@@H](O)C1 [Compound 094]
16 | ≤ 10 | COc1nc(O[C@H]2CCc3c(-c4cccc(-c5cc6cc7c(c(C#N)c6o5)CCC7N5CC[C@@H](C(=O)O)C5)c4C)cccc32)ccc1CN1CC[C@@H](O)C1 (stereo partly drawn) [Compound 001]
17 | ≤ 10 | COc1nc(O[C@H]2CCc3c(-c4cccc(-c5nc6cc7c(c(C#N)c6o5)CC[C@H]7N5CC[C@@H](C(=O)NS(=O)(=O)C6(C)CC6)C5)c4C)cccc32)c(Cl)cc1CN1CC[C@@H](O)C1 [Compound 098]
18 | ≤ 10 | COc1nc(O[C@H]2CCc3c(-c4cccc(-c5nc6cc7c(c(C#N)c6o5)CC[C@H]7N5CC[C@@H](C(=O)O)C5)c4C)cccc32)ccc1CN1CC[C@@H](O)C1 [Compound 091]
19 | ≤ 10 | COc1nc(O[C@H]2CCc3c(-c4cccc(-c5cc6cc7c(c(C#N)c6o5)CC[C@H]7N5CC[C@@H](C(=O)NS(=O)(=O)C6CC6)C5)c4C)cccc32)c(Cl)cc1CN1CC[C@@H](O)C1 [Compound 080]
20 | ≤ 10 | COc1nc(O[C@H]2CCc3c(-c4cccc(-c5nc6cc7c(c(C#N)c6o5)CCC7N5CC[C@@H](C(=O)O)C5)c4C)cccc32)ccc1CN1CC[C@@H](O)C1 (stereo partly drawn) [Compound 003]
21 | ≤ 10 | COc1nc(O[C@H]2CCc3c(-c4cccc(-c5nc6cc7c(c(C#N)c6o5)CC[C@H]7N5CC[C@@H](C(=O)NS(=O)(=O)C6(C)CC6)C5)c4Cl)cccc32)c(Cl)cc1CN1CC[C@@H](O)C1 [Compound 096]

— patent publication US20220370429A1, “AROMATIC HETEROCYCLIC COMPOUND HAVING TRICYCLIC STRUCTURE, AND PREPARATION METHOD THEREFOR AND APPLICATION THEREOF” (SHANGHAI LONGWOOD BIOPHARMACEUTICALS CO., LTD., priority 2019, published 2022)
